The text below walks through data of US20250302815A1, “PROTEIN TYROSINE PHOSPHATASE TARGETING LIGANDS” (CALICO LIFE SCIENCES LLC, priority 2021, published 2025).

Each structure is given as a SMILES string.

Experiment [1] deals with T1, PTPN2 (HiBIT-PTPN2 in 293T.109 cells) (Homo sapiens, UniProt P17706).
T1 construct: expressed in transfected cells; host or cells: 293T.109 (293T WT from ATCC)
T1 sequence (P17706 1-415): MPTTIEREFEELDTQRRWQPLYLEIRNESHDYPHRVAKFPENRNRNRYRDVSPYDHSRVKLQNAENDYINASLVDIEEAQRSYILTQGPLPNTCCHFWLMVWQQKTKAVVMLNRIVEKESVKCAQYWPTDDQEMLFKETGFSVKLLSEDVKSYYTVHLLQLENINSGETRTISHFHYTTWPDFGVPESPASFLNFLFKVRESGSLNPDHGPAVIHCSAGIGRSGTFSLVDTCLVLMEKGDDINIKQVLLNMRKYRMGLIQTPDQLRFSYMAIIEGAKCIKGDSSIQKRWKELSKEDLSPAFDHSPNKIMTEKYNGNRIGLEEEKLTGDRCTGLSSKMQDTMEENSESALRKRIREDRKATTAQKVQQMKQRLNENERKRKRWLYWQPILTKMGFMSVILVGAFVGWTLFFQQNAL
Briefly: HiBiT Degradation 293T.109 PTPN2 (Nano-Glo HiBiT Lytic Assay). The class given is cell-based. Conditions: 24.0 hours. The gist of the method:
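293T.109 cells with ectopic N-terminal HiBiT-tagged PTPN2 (5000/well) exposed to compounds for 24 h at 37 °C, 5% CO2; 11-point half-log titration from 10 μM top, duplicates. Remaining HiBiT-PTPN2 read as luminescence with Nano-Glo HiBiT lytic reagent, normalised to untreated cells (0%) and reagent-free wells.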

The next experiment concerns the target T2, PTPN2 (B16F10.4 cells) (Mus musculus, UniProt Q06180).
T2 construct: HiBiT; host or cells: B16F10.4
T2 sequence (Q06180 1-406): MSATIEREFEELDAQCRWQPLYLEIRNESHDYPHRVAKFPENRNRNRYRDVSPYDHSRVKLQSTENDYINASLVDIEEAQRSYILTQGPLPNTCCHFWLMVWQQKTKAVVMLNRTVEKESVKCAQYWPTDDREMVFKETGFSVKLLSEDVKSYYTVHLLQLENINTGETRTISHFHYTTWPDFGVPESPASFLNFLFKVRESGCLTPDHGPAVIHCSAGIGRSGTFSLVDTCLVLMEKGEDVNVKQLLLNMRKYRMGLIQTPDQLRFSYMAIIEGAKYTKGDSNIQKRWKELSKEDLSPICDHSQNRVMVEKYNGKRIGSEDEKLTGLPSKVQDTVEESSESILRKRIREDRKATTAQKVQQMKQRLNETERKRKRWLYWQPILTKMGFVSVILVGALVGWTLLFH
The experiment is described as follows: HiBiT Degradation B16F10.4 PTPN2. Conditions: 24.0 hours. The class given is cell-based.

Regarding `O=C(O)COc1c(C(=O)O)sc(-c2cccc(NC3CCN(S(=O)(=O)Cc4ccc(F)c(NC(=O)C5CCN(C(=O)CNc6cccc7c6CN(C6CCC(=O)NC6=O)C7=O)CC5)c4)CC3)c2)c1Cl` (stereo not drawn) [Example 77], the DC50 is 50 to 200 nM in experiment [1] and at least 1000 nM at PTPN2 (B16F10.4 cells).
In the same order, the values of `CC1(C)C[C@@H](Nc2cccc(-c3sc(C(=O)O)c(OCC(=O)O)c3Cl)c2)CCN1S(=O)(=O)Cc1cccc(NC(=O)N2CCC(C(=O)NCc3cccc4c3CN(C3CCC(=O)NC3=O)C4=O)CC2)c1` (stereo partly drawn) [Example 84, 3-(carboxymethoxy)-4-chloro-5-[3-[[(4S)-1-[[3-[[4-[[2-(2,6-dioxo-3-piperidyl)-1-oxo-isoindolin-4-yl]methylcarbamoyl]piperidine-1-carbonyl]amino]phenyl]methylsulfonyl]-2,2-dimethyl-4-piperidyl]amino]phenyl]thiophene-2-carboxylic acid] are 200 to 1000 nM and at least 1000 nM.
For the molecule `Cn1c(=O)n(C2CCC(=O)NC2=O)c2ccc(N3CCC(N4CCN(c5cccc(CS(=O)(=O)N6CC[C@H](Nc7cccc(-c8sc(C(=O)O)c(OCC(=O)O)c8Cl)c7)CC6(C)C)c5)C4=O)CC3)cc21` (stereo partly drawn) [Example 198, 3-(carboxymethoxy)-4-chloro-5-[3-[[(4S)-1-[3-[3-[[1-[1-(2,6-dioxo-3-piperidyl)-3-methyl-2-oxo-benzimidazol-5-yl]-4-piperidyl]-2-oxo-imidazolidin-1-yl]phenyl]methylsulfonyl]-2,2-dimethyl-4-piperidyl]amino]phenyl]thiophene-2-carboxylic acid], the DC50 (in experiment [1]; on PTPN2 (B16F10.4 cells)) was 50 to 200 nM each time.
On to `CC1(C)C[C@@H](Nc2cccc(-c3sc(C(=O)O)c(OCC(=O)O)c3Cl)c2)CCN1S(=O)(=O)Cc1cccc(NC(=O)N2CCC(c3ccc4c(c3)c3cccnc3n4C3CCC(=O)NC3=O)CC2)c1` (stereo partly drawn) [Example 195, 3-(carboxymethoxy)-4-chloro-5-[3-[[(4S)-1-[[3-[[4-[9-(2,6-dioxo-3-piperidyl)pyrido[2,3-b]indol-6-yl]piperidine-1-carbonyl]amino]phenyl]methylsulfonyl]-2,2-dimethyl-4-piperidyl]amino]phenyl]thiophene-2-carboxylic acid], for which the DC50 (in experiment [1]; on PTPN2 (B16F10.4 cells)) was 200 to 1000 nM in each case.
Regarding `Cn1c(=O)n(C2CCC(=O)NC2=O)c2ccc(N3CCC(NCCNc4cccc(CS(=O)(=O)N5CC[C@H](Nc6cccc(-c7sc(C(=O)O)c(OCC(=O)O)c7Cl)c6)CC5(C)C)c4)CC3)cc21` (stereo partly drawn) [Example 197, 3-(carboxymethoxy)-4-chloro-5-[3-[[(4S)-1-[[3-[2-[[1-[1-(2,6-dioxo-3-piperidyl)-3-methyl-2-oxo-benzimidazol-5-yl]-4-piperidyl]amino]ethylamino]phenyl]methylsulfonyl]-2,2-dimethyl-4-piperidyl]amino]phenyl]thiophene-2-carboxylic acid], the DC50 is below 50 nM in experiment [1] and 50 to 200 nM on PTPN2 (B16F10.4 cells).
As to `CC(C)(c1cccc(NC(=O)CCCCCCNC(=O)CNc2ccc3c(c2)CN(C2CCC(=O)NC2=O)C3=O)c1)S(=O)(=O)N1CCC(Nc2cccc(-c3sc(C(=O)O)c(OCC(=O)O)c3Cl)c2)CC1` (stereo not drawn) [Example 39, 3-(carboxymethoxy)-4-chloro-5-[3-[[1-[1-[3-[7-[[2-[[2-(2,6-dioxo-3-piperidyl)-1-oxo-isoindolin-5-yl]amino]acetyl]amino]heptanoylamino]phenyl]-1-methyl-ethyl]sulfonyl-4-piperidyl]amino]phenyl]thiophene-2-carboxylic acid], the DC50 in experiment [1] was 200 to 1000 nM; on PTPN2 (B16F10.4 cells), at least 1000 nM.
Taken in the same sequence, the figures for `CC1(C)C[C@@H](Nc2cccc(-c3sc(C(=O)O)c(OCC(=O)O)c3Cl)c2)CCN1S(=O)(=O)Cc1cccc(NC(=O)C2CCN(C(=O)CNc3ccc4c(c3)CN(C3CCC(=O)NC3=O)C4=O)CC2)c1` (stereo partly drawn) [Example 41, 3-(carboxymethoxy)-4-chloro-5-(3-(((4S)-1-((3-(1-((2-(2,6-dioxopiperidin-3-yl)-1-oxoisoindolin-5-yl)glycyl)piperidine-4-carboxamido)benzyl)sulfonyl)-2,2-dimethylpiperidin-4-yl)amino)phenyl)thiophene-2-carboxylic acid] were 50 to 200 nM and at least 1000 nM.
For `Cn1c(=O)n(C2CCC(=O)NC2=O)c2ccc([C@H]3CN(C(=O)Nc4cccc(CS(=O)(=O)N5CC[C@H](Nc6cccc(-c7sc(C(=O)O)c(OCC(=O)O)c7Cl)c6)CC5(C)C)c4)CC[C@@H]3F)cc21` (stereo partly drawn) [Example 214, 3-(carboxymethoxy)-4-chloro-5-[3-[[(4S)-1-[[3-[[(3S,4S)-3-[1-(2,6-dioxo-3-piperidyl)-3-methyl-2-oxo-benzimidazol-5-yl]-4-fluoro-piperidine-1-carbonyl]amino]phenyl]methylsulfonyl]-2,2-dimethyl-4-piperidyl]amino]phenyl]thiophene-2-carboxylic acid], the DC50 in experiment [1] is 200 to 1000 nM; at PTPN2 (B16F10.4 cells), 50 to 200 nM.
With `Cn1c(=O)n(C2CCC(=O)NC2=O)c2ccc(C3CCN(C(=O)Nc4cccc(CS(=O)(=O)N5CC[C@@H](Nc6cccc(-c7sc(C(=O)O)c(OCC(=O)O)c7Cl)c6F)CC5(C)C)c4)CC3)cc21` (stereo partly drawn) [Example 135, 3-(carboxymethoxy)-4-chloro-5-[3-[[(4R)-1-[[3-[[4-[1-(2,6-dioxo-3-piperidyl)-3-methyl-2-oxo-benzimidazol-5-yl]piperidine-1-carbonyl]amino]phenyl]methylsulfonyl]-2,2-dimethyl-4-piperidyl]amino]-2-fluoro-phenyl]thiophene-2-carboxylic acid], the DC50 was 50 to 200 nM in experiment [1] and below 50 nM at PTPN2 (B16F10.4 cells).
Regarding `Cn1c(=O)n(C2CCC(=O)NC2=O)c2ccc(C3CN(C(=O)Nc4cccc(CS(=O)(=O)N5CC[C@H](Nc6cccc(-c7sc(C(=O)O)c(OCC(=O)O)c7Cl)c6)CC5(C)C)c4)CCC3F)cc21` (stereo partly drawn) [Example 212, 3-(carboxymethoxy)-4-chloro-5-[3-[[(4S)-1-[[3-[[3-[1-(2,6-dioxo-3-piperidyl)-3-methyl-2-oxo-benzimidazol-5-yl]-4-fluoro-piperidine-1-carbonyl]amino]phenyl]methylsulfonyl]-2,2-dimethyl-4-piperidyl]amino]phenyl]thiophene-2-carboxylic acid], the DC50 in experiment [1] is 200 to 1000 nM; on PTPN2 (B16F10.4 cells) it was 50 to 200 nM.
Consider `Cn1c(=O)n(C2CCC(=O)NC2=O)c2ccc([C@H]3CCN(C(=O)Nc4cccc(CS(=O)(=O)N5CC[C@H](Nc6cccc(-c7sc(C(=O)O)c(OCC(=O)O)c7Cl)c6)CC5(C)C)c4)CC3(F)F)cc21` (stereo partly drawn) [Example 168, 3-(carboxymethoxy)-4-chloro-5-(3-(((4S)-1-((3-((4R)-4-(1-(2,6-dioxopiperidin-3-yl)-3-methyl-2-oxo-2,3-dihydro-1H-benzo[d]imidazol-5-yl)-3,3-difluoropiperidine-1-carboxamido)benzyl)sulfonyl)-2,2-dimethylpiperidin-4-yl)amino)phenyl)thiophene-2-carboxylic acid], for which the DC50 was 50 to 200 nM in experiment [1] and below 50 nM on PTPN2 (B16F10.4 cells).
In the same order, the values of `Cn1c(=O)n(C2CCC(=O)NC2=O)c2ccc([C@@H]3CN(C(=O)Nc4cccc(CS(=O)(=O)N5CC[C@H](Nc6cccc(-c7sc(C(=O)O)c(OCC(=O)O)c7Cl)c6)CC5(C)C)c4)CC[C@H]3F)cc21` (stereo partly drawn) [Example 213, 3-(carboxymethoxy)-4-chloro-5-[3-[[(4S)-1-[[3-[[(3R,4R)-3-[1-(2,6-dioxo-3-piperidyl)-3-methyl-2-oxo-benzimidazol-5-yl]-4-fluoro-piperidine-1-carbonyl]amino]phenyl]methylsulfonyl]-2,2-dimethyl-4-piperidyl]amino]phenyl]thiophene-2-carboxylic acid] are at least 1000 nM and 50 to 200 nM.
